Data taken from ChEMBL document CHEMBL1201862, “PubChem BioAssay data set” (2004).
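Test compounds were applied to cells in 96-well plates for 48 hours at 5 doses. At the GI50, growth is halved.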 The source made the active and inactive calls. Rule as the data show it: active = GI50 up to about 1.1 µM and inactive = higher.

Columns and labels:
Assay in all cases: growth of human tumour cells (NCI), 48 h
CCRF-CEM = test system: CCRF-CEM
HCT-15 = test system: HCT-15
HOP-62 = test system: HOP-62
IGROV-1 = test system: IGROV-1
M14 = test system: M14
MDA-MB-231 = test system: MDA-MB-231
MDA-MB-435 = test system: MDA-MB-435
Malme-3M = test system: Malme-3M
NCI-H226 = test system: NCI-H226
NCI-H460 = test system: NCI-H460
NCI-H522 = test system: NCI-H522
OVCAR-8 = test system: OVCAR-8
RXF 393 = test system: RXF 393
SF-539 = test system: SF-539
SK-MEL-2 = test system: SK-MEL-2
SW-620 = test system: SW-620
UACC-257 = test system: UACC-257
UO-31 = test system: UO-31
SK-OV-3 = test system: SK-OV-3

Row | SMILES | GI50 (CCRF-CEM) | GI50 (HCT-15) | GI50 (HOP-62) | GI50 (IGROV-1) | GI50 (M14) | GI50 (MDA-MB-231) | GI50 (MDA-MB-435) | GI50 (Malme-3M) | GI50 (NCI-H226) | GI50 (NCI-H460) | GI50 (NCI-H522) | GI50 (OVCAR-8) | GI50 (RXF 393) | GI50 (SF-539) | GI50 (SK-MEL-2) | GI50 (SW-620) | GI50 (UACC-257) | GI50 (UO-31) | GI50 (SK-OV-3)
1 | COc1ccc(OC)c([N+](=O)[O-])c1-c1nc2sc(C)cn2c1/C=N/N=C(N)N | 42.2 µM (inactive) | > 100 µM | 43.5 µM (inactive) | 14.5 µM (inactive) | 32.8 µM (inactive) | 23.7 µM (inactive) | 20.1 µM (inactive) | 19.1 µM (inactive) | 36.1 µM (inactive) | 29.6 µM (inactive) | 20 µM (inactive) | 25.7 µM (inactive) | 28.2 µM (inactive) | 38.4 µM (inactive) | 21.5 µM (inactive) | 29.9 µM (inactive) | 18 µM (inactive) | > 100 µM (inactive) | –
2 | Cc1cc(Cl)ccc1NC(=O)C(=O)Cc1ccc([N+](=O)[O-])c([N+](=O)[O-])c1CC(=O)C(=O)Nc1ccc(Cl)cc1C | 78.7 µM (inactive) | > 100 µM | > 100 µM (inactive) | > 100 µM (inactive) | > 100 µM (inactive) | – | – | > 100 µM (inactive) | > 100 µM (inactive) | > 100 µM (inactive) | 99.1 µM (inactive) | > 100 µM (inactive) | > 100 µM (inactive) | 35 µM (inactive) | > 100 µM (inactive) | > 100 µM (inactive) | > 100 µM (inactive) | > 100 µM (inactive) | > 100 µM (inactive)
3 | C=C(C)CCN[Si](c1ccccc1)(c1ccccc1)C(C)(C)C | 25.8 µM (inactive) | 21.9 µM | 17.1 µM (inactive) | 27.1 µM (inactive) | 18.9 µM (inactive) | – | – | 20.5 µM (inactive) | 12.1 µM (inactive) | 29 µM (inactive) | 18.1 µM (inactive) | 19.6 µM (inactive) | 15.3 µM (inactive) | 15.6 µM (inactive) | 15.2 µM (inactive) | 40 µM (inactive) | 15.7 µM (inactive) | 13.7 µM (inactive) | 32.3 µM (inactive)
4 | CC(Cn1c(=O)oc2ccccc21)N(C)C (stereo not drawn) | > 100 µM (inactive) | > 100 µM | > 100 µM (inactive) | > 100 µM (inactive) | > 100 µM (inactive) | > 100 µM (inactive) | > 100 µM (inactive) | > 100 µM (inactive) | > 100 µM (inactive) | > 100 µM (inactive) | – | > 100 µM (inactive) | > 100 µM (inactive) | > 100 µM (inactive) | > 100 µM (inactive) | > 100 µM (inactive) | > 100 µM (inactive) | – | > 100 µM (inactive)
5 | O=C(/C=C/c1cccc2ccccc12)c1ccccc1Cl | 3.72 µM (inactive) | 6.53 µM | 18.6 µM (inactive) | 16.6 µM (inactive) | 15.5 µM (inactive) | – | – | 16.4 µM (inactive) | > 100 µM (inactive) | 13.5 µM (inactive) | 14.4 µM (inactive) | 13.6 µM (inactive) | 16.7 µM (inactive) | 17.5 µM (inactive) | 19.3 µM (inactive) | 5.58 µM (inactive) | 17.4 µM (inactive) | 14.8 µM (inactive) | 21.4 µM (inactive)
6 | Cc1[nH]c2ccccc2c1C1=CC(=O)N(c2ccccc2)C1=O | 8.45 µM (inactive) | 7.76 µM | 7.98 µM (inactive) | 32.1 µM (inactive) | 13.6 µM (inactive) | 28.2 µM (inactive) | 15.6 µM (inactive) | 13.9 µM (inactive) | 19 µM (inactive) | 14.6 µM (inactive) | – | 14.8 µM (inactive) | 6.67 µM (inactive) | 10.8 µM (inactive) | 13.6 µM (inactive) | 5.38 µM (inactive) | 13.1 µM (inactive) | 19 µM (inactive) | 34.3 µM (inactive)
7 | O=C1CSc2nc3ccccc3n2/C=N\N1 | > 100 µM (inactive) | > 100 µM | – | – | > 100 µM (inactive) | > 100 µM (inactive) | > 100 µM (inactive) | – | > 100 µM (inactive) | > 100 µM (inactive) | > 100 µM (inactive) | > 100 µM (inactive) | > 100 µM (inactive) | – | > 100 µM (inactive) | > 100 µM (inactive) | > 100 µM (inactive) | > 100 µM (inactive) | > 100 µM (inactive)
8 | CN(C)c1ccc(/C=N/NC(=O)c2cnc3ccccc3c2)cc1 | – | > 100 µM | 35.5 µM (inactive) | 51.1 µM (inactive) | > 100 µM (inactive) | 37.8 µM (inactive) | 4.03 µM (inactive) | 18.6 µM (inactive) | > 100 µM (inactive) | > 100 µM (inactive) | 18.1 µM (inactive) | 98.2 µM (inactive) | 19.9 µM (inactive) | 52 µM (inactive) | > 100 µM (inactive) | > 100 µM (inactive) | > 100 µM (inactive) | > 100 µM (inactive) | 26.5 µM (inactive)
9 | CC1OC2(CC(OCc3ccccc3)C1OCc1ccccc1)OCCO2 (stereo not drawn) | 34.4 µM (inactive) | 28.2 µM | > 100 µM (inactive) | > 100 µM (inactive) | 45.7 µM (inactive) | 37 µM (inactive) | 57 µM (inactive) | > 100 µM (inactive) | 82.6 µM (inactive) | 32 µM (inactive) | 31.2 µM (inactive) | > 100 µM (inactive) | 16.4 µM (inactive) | > 100 µM (inactive) | 78.5 µM (inactive) | 70 µM (inactive) | 34.8 µM (inactive) | 42.3 µM (inactive) | > 100 µM (inactive)
10 | Cc1ccc(NC(=O)c2cc3ccccc3c(/N=N\c3ccccc3O)c2O)c(C)c1 | 0.818 µM (active) | 0.614 µM | 1.03 µM (active) | 1.14 µM (inactive) | 0.839 µM (active) | 2 µM (inactive) | – | 0.809 µM (active) | 2.82 µM (inactive) | 0.44 µM (active) | 1.01 µM (active) | 0.859 µM (active) | 3.67 µM (inactive) | – | 2.98 µM (inactive) | 1.69 µM (inactive) | 4.75 µM (inactive) | – | 1.86 µM (inactive)
11 | OCC1C2CCC3(OCCO3)C12 (stereo not drawn) | > 100 µM (inactive) | > 100 µM | > 100 µM (inactive) | > 100 µM (inactive) | > 100 µM (inactive) | > 100 µM (inactive) | > 100 µM (inactive) | 57.3 µM (inactive) | > 100 µM (inactive) | > 100 µM (inactive) | > 100 µM (inactive) | > 100 µM (inactive) | > 100 µM (inactive) | > 100 µM (inactive) | > 100 µM (inactive) | > 100 µM (inactive) | > 100 µM (inactive) | 15.4 µM (inactive) | > 100 µM (inactive)
12 | CC(=O)O[C@H]1C(=O)[C@]2(C)[C@@H](OC(=O)OCC(O)CO)C[C@H]3OC[C@@]3(OC(C)=O)[C@H]2[C@H](OC(=O)c2ccccc2)[C@]2(O)C[C@H](OC(=O)[C@H](O)[C@@H](NC(=O)c3ccccc3)c3ccccc3)C(C)=C1C2(C)C (stereo partly drawn) [PACLITAXEL CERIBATE] | < 0.01 µM (active) | 0.143 µM | < 0.01 µM (active) | < 0.01 µM (active) | < 0.01 µM (active) | < 0.01 µM (active) | < 0.01 µM (active) | – | – | < 0.01 µM (active) | < 0.01 µM (active) | < 0.01 µM (active) | < 0.01 µM (active) | < 0.01 µM (active) | < 0.01 µM (active) | < 0.01 µM (active) | < 0.01 µM (active) | 0.601 µM (active) | < 0.01 µM (active)
